Biological target: T1, human capsaicin receptor (Homo sapiens, UniProt Q8NER1)
T1 construct: transfected with the pBK-CMV expression construct encoding the full length human capsaicin receptor; expressed in transfected cells; host or cells: HEK293, stably transfected clonal lines, plasmid pBK-CMV
Experiment: Calcium mobilization assay, determination of antagonist activity (Example 6)
Assay type: cell-based
Settings: concentration giving 50% decrease in the fluorescence response of cells expressing human capsaicin receptor exposed to capsaicin
Procedure: A cDNA encoding full length human capsaicin receptor (SEQ ID NO:1, 2 or 3 of U.S. Pat. No. 6,482,611) was subcloned in the plasmid pBK-CMV (Stratagene, La Jolla, Calif.) for recombinant expression in mammalian cells.
Human embryonic kidney (HEK293) cells were transfected with the pBK-CMV expression construct encoding the full length human capsaicin receptor using standard methods. The transfected cells were selected for two weeks in media containing G418 (400 μg/ml) to obtain a pool of stably transfected cells. Independent clones were isolated from this pool by limiting dilution to obtain clonal stable cell lines for use in subsequent experiments.
Cells transfected with expression plasmids (as described in Example 4) and thereby expressing human capsaicin receptor are seeded and grown to 70-90% confluency in FALCON black-walled, clear-bottomed 96-well plates (#3904, BECTON-DICKINSON, Franklin Lakes, N.J.). The culture medium is emptied from the 96 well plates and FLUO-3 AM calcium sensitive dye (Molecular Probes, Eugene, Oreg.) is added to each well (dye solution: 1 mg FLUO-3 AM, 440 μL DMSO and 440 μl 20% pluronic acid in DMSO, diluted 1:250 in Krebs-Ringer HEPES (KRH) buffer (25 mM HEPES, 5 mM KCl, 0.96 mM NaH2PO4, 1 mM MgSO4, 2 mM CaCl2, 5 mM glucose, 1 mM probenecid, pH 7.4), 50 μl diluted solution per well). Plates are covered with aluminum foil and incubated at 37° C. for 1-2 hours in an environment containing 5% CO2. After the incubation, the dye is emptied from the plates, and the cells are washed once with KRH buffer, and resuspended in KRH buffer.
To measure the ability of a test compound to agonize or antagonize a calcium mobilization response in cells expressing capsaicin receptors to capsaicin or other vanilloid agonist, the EC50 of the agonist capsaicin is first determined. An additional 20 μl of KRH buffer and 1 μl DMSO is added to each well of cells, prepared as described above. 100 μl capsaicin in KRH buffer is automatically transferred by the FLIPR instrument to each well. Capsaicin-induced calcium mobilization is monitored using either FLUOROSKAN ASCENT (Labsystems; Franklin, Mass.) or FLIPR (fluorometric imaging plate reader system; Molecular Devices, Sunnyvale, Calif.) instruments. Data obtained between 30 and 60 seconds after agonist application are used to generate an 8-point concentration response curve, with final capsaicin concentrations of 1 nM to 3 μM. […] software (Synergy Software, Reading, Pa.) is used to fit the data to the equation: y=a*(1/(1+(b/x)^c)) to determine the 50% excitatory concentration (EC50) for the response. In this equation, y is the maximum fluorescence signal, x is the concentration of the agonist or antagonist (in this case, capsaicin), a is the Emax, b corresponds to the EC50 value and c is the Hill coefficient. Determination Agonist Activity
Test compounds are dissolved in DMSO, diluted in 20 μl KRH buffer so that the final concentration of test compounds in the assay well is between 1 μM and 5 μM, and added to cells prepared as described above. The 96 well plates containing prepared cells and test compounds are incubated in the dark, at room temperature for 0.5 to 6 hours. It is important that the incubation not continue beyond 6 hours. Just prior to determining the fluorescence response, 100 μl capsaicin in KRH buffer at twice the EC50 concentration determined as described above is automatically added by the FLIPR instrument to each well of the 96 well plate for a final sample volume of 200 μl and a final capsaicin concentration equal to the EC50. The final concentration of test compounds in the assay wells is between 1 μM and 5 μM.

T1 sequence (Q8NER1 whole entry): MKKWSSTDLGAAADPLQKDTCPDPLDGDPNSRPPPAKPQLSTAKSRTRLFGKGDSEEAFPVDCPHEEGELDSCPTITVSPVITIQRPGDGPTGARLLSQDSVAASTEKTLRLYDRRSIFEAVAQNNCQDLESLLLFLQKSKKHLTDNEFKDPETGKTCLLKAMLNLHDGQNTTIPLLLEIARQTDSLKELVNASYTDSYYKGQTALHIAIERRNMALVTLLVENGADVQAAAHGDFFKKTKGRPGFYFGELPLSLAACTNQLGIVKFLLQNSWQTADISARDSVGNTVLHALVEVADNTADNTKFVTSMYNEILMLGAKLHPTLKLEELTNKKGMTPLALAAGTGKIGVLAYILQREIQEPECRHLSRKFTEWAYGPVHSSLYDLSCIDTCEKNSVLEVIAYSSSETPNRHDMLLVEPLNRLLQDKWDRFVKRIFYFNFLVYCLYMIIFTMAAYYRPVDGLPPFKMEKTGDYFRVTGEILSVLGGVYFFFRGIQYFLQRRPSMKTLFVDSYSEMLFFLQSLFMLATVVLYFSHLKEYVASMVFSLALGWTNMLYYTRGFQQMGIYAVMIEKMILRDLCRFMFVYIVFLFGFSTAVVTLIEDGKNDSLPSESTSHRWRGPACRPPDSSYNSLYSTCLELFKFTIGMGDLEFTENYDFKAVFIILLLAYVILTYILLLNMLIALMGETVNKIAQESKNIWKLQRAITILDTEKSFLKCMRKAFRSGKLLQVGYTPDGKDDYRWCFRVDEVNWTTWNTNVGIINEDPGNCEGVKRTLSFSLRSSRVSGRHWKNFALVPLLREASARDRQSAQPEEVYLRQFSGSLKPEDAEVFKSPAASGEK

IC50, ≤ 1000 nM:
CN1CCN(c2nc(Nc3ccc(C(C)(C)C)cc3)nc(OCc3ccccc3C(F)(F)F)n2)CC1 [Compound 1, (4-tert-Butyl-phenyl)-[4-(4-methyl-piperazin-1-yl)-6-(2-trifluoromethyl-benzyloxy)-[1,3,5]triazine-2-yl]-amine]
COc1ccccc1COc1nc(Cl)nc(Nc2ccc(C(C)(C)C)cc2)n1 [Compound 3, (4-tert-Butyl-phenyl)-[4-chloro-6-(2-methoxy-benzyloxy)-[1,3,5]triazin-2-yl]-amine]
CC(C)(C)c1ccc(Nc2nc(Cl)nc(OCc3ccccc3C(F)(F)F)n2)cc1 [Compound 4, (4-tert-Butyl-phenyl)-[4-chloro-6-(2-trifluoromethyl-benzyloxy)-[1,3,5]triazin-2-yl]-amine]
CC(C)(C)c1ccc(Nc2nc(Cl)nc(N3CCc4ccccc4C3)n2)cc1 [Compound 5, (4-tert-Butyl-phenyl)-[4-chloro-6-(3,4-dihydro-1H-isoquinolin-2-yl)-[1,3,5]triazin-2-yl]-amine]
COc1cc2c(cc1OC)CN(c1nc(Cl)nc(Nc3ccc(C(C)(C)C)cc3)n1)CC2 [Compound 6, (4-tert-Butyl-phenyl)-[4-chloro-6-(6,7-dimethoxy-3,4-dihydro-1H-isoquinolin-2-yl)-[1,3,5]triazin-2-yl]-amine]
COc1cc2c(cc1OC)CN(c1nc(Cl)nc(Nc3ccc(C(C)(C)C)cc3)n1)C(C)C2 (stereo not shown) [Compound 7, (4-tert-Butyl-phenyl)-[4-chloro-6-(6,7-dimethoxy-3-methyl-3,4-dihydro-1H-isoquinolin-2-yl)-[1,3,5]triazin-2-yl]-amine]
CC(C)(C)c1ccc(Nc2cc(OCc3ccccc3C(F)(F)F)ncn2)cc1 [Compound 8, (4-tert-Butyl-phenyl)-[6-(2-trifluoromethyl-benzyloxy)-pyrimidin-4-yl]-amine]
FC(F)(F)c1ccc(Nc2nc(OCc3ccccc3C(F)(F)F)nc(-c3ccccc3Cl)n2)cc1 [Compound 9, [4-(2-Chloro-phenyl)-6-(2-trifluoromethyl-benzyloxy)-[1,3,5]triazin-2-yl]-(4-trifluoromethyl-phenyl)-amine]
FC(F)(F)c1ccc(Nc2nc(OCc3ccccc3C(F)(F)F)nc(-c3ccccc3C(F)(F)F)n2)cc1 [Compound 10, [4-(2-Trifluoromethyl-benzyloxy)-6-(2-trifluoromethyl-phenyl)-[1,3,5]triazin-2-yl]-(4-trifluoromethyl-phenyl)-amine]
CC(C)(C)c1ccc(Nc2nc(OCc3ccccc3Cl)nc(OCc3ccccc3Cl)n2)cc1 [Compound 11, [4,6-Bis-(2-chloro-benzyloxy)-[1,3,5]triazin-2-yl]-(4-tert-butyl-phenyl)-amine]
CC(C)(C)c1ccc(Nc2nc(OCc3ccccc3F)nc(OCc3ccccc3F)n2)cc1 [Compound 12, [4,6-Bis-(2-fluoro-benzyloxy)-[1,3,5]triazin-2-yl]-(4-tert-butyl-phenyl)-amine]
COc1ccccc1COc1nc(Nc2ccc(C(C)(C)C)cc2)nc(OCc2ccccc2OC)n1 [Compound 13, [4,6-Bis-(2-methoxy-benzyloxy)-[1,3,5]triazin-2-yl]-(4-tert-butyl-phenyl)-amine]
CC(C)(C)c1ccc(Nc2nc(OCc3ccccc3C(F)(F)F)nc(OCc3ccccc3C(F)(F)F)n2)cc1 [Compound 14, [4,6-Bis-(2-trifluoromethyl-benzyloxy)-[1,3,5]triazin-2-yl]-(4-tert-butyl-phenyl)-amine]
FC(F)(F)c1ccc(Nc2nc(OCc3ccccc3C(F)(F)F)nc(OCc3ccccc3C(F)(F)F)n2)cc1 [Compound 15, [4,6-Bis-(2-trifluoromethyl-benzyloxy)-[1,3,5]triazin-2-yl]-(4-trifluoromethyl-phenyl)-amine]
CC(C)(C)c1ccc(Nc2nc(OCc3ncccc3Cl)nc(OCc3ncccc3Cl)n2)cc1 [Compound 16, [4,6-Bis-(3-chloro-pyridin-2-ylmethoxy)-[1,3,5]triazin-2-yl]-(4-tert-butyl-phenyl)-amine]
CC(C)(C)c1ccc(Nc2nc(OCc3ccccn3)nc(OCc3ccccn3)n2)cc1 [Compound 17, [4,6-Bis-(pyridin-2-ylmethoxy)-[1,3,5]triazin-2-yl]-(4-tert-butyl-phenyl)-amine]
FC(F)(F)c1ccc(Nc2nc(Cl)nc(OCc3ccccc3C(F)(F)F)n2)cc1 [Compound 18, [4-Chloro-6-(2-trifluoromethyl-benzyloxy)-[1,3,5]triazin-2-yl]-(4-trifluoromethyl-phenyl)-amine]
FC(F)(F)c1ccc(Nc2nc(OCc3ccccc3C(F)(F)F)nc(OC3CCCC3)n2)cc1 [Compound 19, [4-Cyclopentyloxy-6-(2-trifluoromethyl-benzyloxy)-[1,3,5]triazin-2-yl]-(4-trifluoromethyl-phenyl)-amine]
CCOc1nc(Nc2ccc(C(F)(F)F)cc2)nc(OCc2ccccc2C(F)(F)F)n1 [Compound 20, [4-Ethoxy-6-(2-trifluoromethyl-benzyloxy)-[1,3,5]triazin-2-yl]-(4-trifluoromethyl-phenyl)-amine]
FC(F)(F)c1ccc(Nc2nc(OCc3ccccc3C(F)(F)F)nc(N3CCOCC3)n2)cc1 [Compound 21, [4-Morpholin-4-yl-6-(2-trifluoromethyl-benzyloxy)-[1,3,5]triazin-2-yl]-(4-trifluoromethyl-phenyl)-amine]
FC(F)(F)c1ccc(Nc2nc(OCc3ccccc3C(F)(F)F)nc(-c3ccccc3)n2)cc1 [Compound 22, [4-Phenyl-6-(2-trifluoromethyl-benzyloxy)-[1,3,5]triazin-2-yl]-(4-trifluoromethyl-phenyl)-amine]
FC(F)(F)c1ccc(Nc2nc(OCc3ccccc3C(F)(F)F)nc(-c3cccnc3)n2)cc1 [Compound 23, [4-Pyridin-3-yl-6-(2-trifluoromethyl-benzyloxy)-[1,3,5]triazin-2-yl]-(4-trifluoromethyl-phenyl)-amine]
CC(C)(O)CCNc1nc(Nc2ccc(C(F)(F)F)cc2)nc(OCc2ccccc2C(F)(F)F)n1 [Compound 24, 2-Methyl-4-[4-(2-trifluoromethyl-benzyloxy)-6-(4-trifluoromethyl-phenylamino)-[1,3,5]triazin-2-ylamino]-butan-2-ol]
Oc1nc(Nc2ccc(C(F)(F)F)cc2)nc(OCc2ccccc2C(F)(F)F)n1 [Compound 25, 4-(2-Trifluoromethyl-benzyloxy)-6-(4-trifluoromethyl-phenylamino)-[1,3,5]triazin-2-ol]
FC(F)(F)c1ccc(Nc2nc(NCCN3CCOCC3)nc(OCc3ccccc3C(F)(F)F)n2)cc1 [Compound 28, N-(2-Morpholin-4-yl-ethyl)-6-(2-trifluoromethyl-benzyloxy)-N′-(4-trifluoromethyl-phenyl)-[1,3,5]triazine-2,4-diamine]

Reference: patent US20070161637A1, “Substituted pyridin-2-ylamine analogues” (Neurogen Corporation, priority 2003, published 2007)
